Assay results reported in article PMC7015960, “Effect of rifampin and itraconazole on the pharmacokinetics of zanubrutinib (a Bruton's tyrosine kinase inhibitor) in Asian and non-Asian healthy subjects” (Cancer Chemotherapy and Pharmacology, 2019).
Where “and” joins values, the source holds several entries; their conditions need not be identical. Equal values may be shown once. Read-outs that look alike come from different tables or passages of the source. Blank lines part the entries; values can stand above or below the compound they belong to.

Key:
[1] = cited from earlier work
[2] = Part A: single-dose PK of 320 mg zanubrutinib alone and with steady-state rifampin (CYP3A induction) in healthy subjects; format: in vivo, human; conditions: for CL/F / AUC(0-inf) / Cmax / half-life / Vd/F: geometric mean (CV%); for AUC(0-inf) / Cmax / half-life / Vd/F / Tmax: both sexes, human, plasma; for Vd/F: read-out: Vz/F; for Tmax: median (min–max)
Description: (§1) This was an open-label, parallel-group, fixed-sequence study in healthy male and female subjects conducted in two parts, Part A and Part B. Part A investigated the effect of CYP3A induction by steady-state rifampin on the single-dose PK of 320 mg zanubrutinib, and Part B investigated the effect of CYP3A inhibition by steady-state itraconazole on the single-dose PK of 20 mg zanubrutinib.
(§2) In Part A, participants received a single oral dose of zanubrutinib (320 mg) in the fasted state on Day 1 and Day 10. Oral rifampin (600 mg/day, Rifampin, VersaPharm Inc., Marietta, GA, USA) was administered once daily in the fasted state on Days 3 through 11. In Part B, participants received a single oral dose of zanubrutinib (20 mg) in the fasted state on Day 1 and Day 6. Oral itraconazole (200 mg/day, Sporanox® capsules, Janssen Pharmaceuticals, Titusville, NJ, USA) was administered once-daily approximately 30 min after completing a meal on Days 3, 4, 5, and 7, and in the fasted state on Day 6.
(§3) Serial blood samples were collected with zanubrutinib alone and when combined with rifampin or itraconazole for the measurement of zanubrutinib plasma concentrations. Plasma samples were collected at predose, 0.5, 1, 1.5, 2, 3, 4, 6, 8, 12, 24, 36, and 48 h postdose on Day 1 and Day 10 in Part A and on Day 1 and Day 6 in Part B.
(§4) Plasma concentrations of zanubrutinib were determined using validated high-performance liquid chromatography coupled with tandem mass spectrometry (HPLC–MS/MS) (Xenobiotic Laboratories, NJ, USA). Protein precipitation was utilized to extract the analyte and internal standard from human plasma containing dipotassium ethylenediaminetetraacetic acid (K2EDTA) as anticoagulant. The analytical method utilized a reversed-phase HPLC column (Supelco Ascentis Express C18 20 × 2.1 mm, 2.7 µm) with a gradient flow of 0.1% formic acid in water (Mobile Phase A) and methanol:acetonitrile (1:1) (Mobile Phase B) at a rate of 0.5 mL/min. The analyte and internal standard were detected using an AB Sciex API-4000 LC–MS/MS system equipped with a positive ESI ion detection.
(§5) The calibration range of zanubrutinib in the assay was 1.00 to 1000 ng/mL using a 50 μL aliquot of plasma, with the lower limit of quantification of 1.00 ng/mL.
(§6) Noncompartmental PK analysis was conducted using the Phoenix® WinNolin® software (Version 6.4). PK parameters were derived for zanubrutinib alone and in combination with rifampin or itraconazole, including area under the plasma concentration–time curve (AUC), maximum observed plasma concentration (Cmax), time of the maximum observed plasma concentration (tmax), apparent terminal elimination half-life (t1/2), apparent total oral clearance (CL/F), and apparent volume of distribution during the terminal elimination phase (Vz/F). Log-transformed area under the curve from time 0 extrapolated to time t (AUC0–t), area under the curve from time 0 extrapolated to infinite time (AUC0–∞), and Cmax of zanubrutinib were analyzed using a mixed model for each part of the study, including treatments as a fixed effect and subject as a random effect. Estimates of geometric mean ratios (GMRs) and the corresponding 90% confidence intervals (CIs) were derived for the comparisons of AUC0–∞, and Cmax as follows:
Part A: zanubrutinib coadministration with rifampin (test) versus zanubrutinib alone (reference),

[3] = Part B: single-dose PK of 20 mg zanubrutinib alone and with steady-state itraconazole (CYP3A inhibition) in healthy subjects; format: in vivo, human; conditions: for CL/F / AUC(0-inf) / Cmax / half-life / Vd/F: geometric mean (CV%); for AUC(0-inf) / Cmax / half-life / Vd/F / Tmax: both sexes, human, plasma; for Vd/F: read-out: Vz/F; for Tmax: median (min–max)
Description: as §1, §2, §3, §4, §5, §6
Part B: zanubrutinib coadministration with itraconazole (test) versus zanubrutinib alone (reference).

[4] = system: cytochrome P450 3A (CYP3A); design: method as in unpublished data; conditions: human liver microsomes; ref unpublished data; cited from earlier work
[5] = Safety and tolerability (TEAEs, laboratory, vital signs, QTcF) in healthy subjects, Parts A and B; format: in vivo, human
From the text: Treatment-emergent adverse events (TEAEs) are summarized by part, treatment, National Cancer Institute Common Terminology Criteria for Adverse Events (v4.03) grade, and relationship to study drugs (zanubrutinib, rifampin, and itraconazole). The frequency of TEAEs is summarized by part, treatment, and Medical Dictionary for Regulatory Activities (MedDRA) system organ class (SOC) and preferred term. The summary and frequency TEAE tables are presented for all causalities and for those TEAEs considered related to the study drugs.

[6] = cited from earlier work; remark: listed apart in the source
[7] = 320 mg zanubrutinib with 600 mg rifampin vs alone
[8] = oral, 320 mg zanubrutinib + 600 mg rifampin QD, Day 10
[9] = oral, 320 mg, Asian subjects, Part A Day 1, 320 mg zanubrutinib alone
[10] = oral, 320 mg, Non-Asian subjects, Part A Day 1, 320 mg zanubrutinib alone
[11] = oral, Asian subjects, Part A Day 10, zanubrutinib + rifampicin
[12] = oral, Non-Asian subjects, Part A Day 10, zanubrutinib + rifampicin
[13] = oral, 320 mg zanubrutinib + 600 mg rifampin QD
[14] = oral, 320 mg zanubrutinib alone
[15] = zanubrutinib in combination with rifampin versus zanubrutinib alone
[16] = 20 mg zanubrutinib with 200 mg itraconazole vs alone
[17] = oral, 20 mg zanubrutinib + 200 mg itraconazole QD, Day 6
[18] = oral, 20 mg, Asian subjects, Part B Day 1, 20 mg zanubrutinib alone
[19] = oral, 20 mg, Non-Asian subjects, Part B Day 1, 20 mg zanubrutinib alone
[20] = oral, Asian subjects, Part B Day 6, zanubrutinib + itraconazole
[21] = oral, Non-Asian subjects, Part B Day 6, zanubrutinib + itraconazole
[22] = oral, 20 mg zanubrutinib + 200 mg itraconazole QD
[23] = zanubrutinib in combination with itraconazole versus zanubrutinib alone
[24] = patients with B-cell malignancies

SMILES: CC#CC(=O)N1CCC[C@H]1c1nc(-c2ccc(C(=O)Nc3ccccn3)cc2)c2c(N)nccn12 [acalabrutinib]
decrease in AUC with rifampin [1]: 77%
increase in AUC with itraconazole [1]: 5.1 fold

SMILES: C=CC(=O)N1CCC[C@@H](n2nc(-c3ccc(Oc4ccccc4)cc3)c3c(N)ncnc32)C1 [ibrutinib]
increase in AUC with ketoconazole [1]: 24 fold

CL/F ([2]; 320 mg zanubrutinib + 600 mg rifampin QD): 1249 L/h and 1249 (43) L/h
CL/F ([2]; 320 mg zanubrutinib alone): 93 L/h and 93 (36) L/h
decrease of AUC0–∞ on coadministration with rifampin [2, 7]: 13.5 fold
decrease of Cmax on coadministration with rifampin [2, 7]: 12.6 fold
AUC(0-inf) [2, 8]: 261 ng·h/mL
Cmax [2, 8]: 42 ng/mL
Cmax ([2]; oral, 320 mg, 320 mg zanubrutinib alone, Day 1): 532 ng/mL
AUC(0-inf) [2, 9]: 3460 ng·h/mL
Cmax [2, 9]: 543 ng/mL
AUC(0-inf) [2, 10]: 3410 ng·h/mL
Cmax [2, 10]: 525 ng/mL
AUC(0-inf) [2, 11]: 213 ng·h/mL
Cmax [2, 11]: 41 ng/mL
AUC(0-inf) [2, 12]: 293 ng·h/mL
Cmax [2, 12]: 43 ng/mL
half-life [2, 13]: 4.8 h
Vd/F [2, 13]: 8660 L
Tmax [2, 13]: 2 h
half-life [2, 14]: 6.8 h
Vd/F [2, 14]: 914 L
Tmax [2, 14]: 2 h
AUC(0-inf) ([2]; po, 320 mg, 320 mg zanubrutinib alone, single oral dose, fasted, Day 1): 3520 ng·h/mL
AUC0–∞ geometric ratio of adjusted means (90% CI) [2, 15]: 7.4% and 7.4 (6.0, 9.1) %
Cmax geometric ratio of adjusted means (90% CI) [2, 15]: 7.9% and 7.9 (6.6, 9.5) %
CL/F ([3]; 20 mg zanubrutinib + 200 mg itraconazole QD): 29 (31) L/h
CL/F ([3]; 20 mg zanubrutinib alone): 109 (29) L/h
increase of AUC0–∞ on coadministration with itraconazole [3, 16]: 3.8 fold and < 4 fold
increase of Cmax on coadministration with itraconazole [3, 16]: 2.6 fold
AUC(0-inf) [3, 17]: 693 ng·h/mL
Cmax [3, 17]: 122 ng/mL
Cmax ([3]; oral, 20 mg, 20 mg zanubrutinib alone, Day 1): 48 ng/mL
AUC(0-inf) [3, 18]: 174 ng·h/mL
Cmax [3, 18]: 50 ng/mL
AUC(0-inf) [3, 19]: 192 ng·h/mL
Cmax [3, 19]: 46 ng/mL
AUC(0-inf) [3, 20]: 694 ng·h/mL
Cmax [3, 20]: 124 ng/mL
AUC(0-inf) [3, 21]: 693 ng·h/mL
Cmax [3, 21]: 120 ng/mL
half-life [3, 22]: 4.3 h
Vd/F [3, 22]: 178 L
Tmax [3, 22]: 2 h
Vd/F ([3]; oral, 20 mg zanubrutinib alone): 341 L
half-life ([3]; oral, 20 mg zanubrutinib alone, terminal phase may not be adequately characterized): 2.2 h
Tmax ([3]; oral, 20 mg zanubrutinib alone): 1.5 h
AUC(0-inf) ([3]; po, 20 mg, 20 mg zanubrutinib alone, single oral dose, fasted, Day 1): 184 ng·h/mL
AUC0–∞ geometric ratio of adjusted means (90% CI) [3, 23]: 378% and 378 (344, 415) %
Cmax geometric ratio of adjusted means (90% CI) [3, 23]: 257% and 257 (226, 291) %
SMILES: C=CC(=O)N1CCC([C@@H]2CCNc3c(C(N)=O)c(-c4ccc(Oc5ccccc5)cc4)nn32)CC1 [zanubrutinib, Zanubrutinib]
PK parameters, Asian versus non-Asian subjects ([2]; 320 mg zanubrutinib alone on Day 1 and with 600 mg rifampin on Day 10): comparable between Asian and non-Asian subjects
PK, Asian versus non-Asian subjects ([3]; 20 mg zanubrutinib alone on Day 1 and with 200 mg itraconazole on Day 6): comparable between Asian and non-Asian subjects
pathway of oxidative metabolism [4]: largely mediated through the cytochrome P450 3A (CYP3A) pathway
overall incidence of TEAEs ([5]; both Part A and Part B): less than 30%
severity of TEAEs / SAEs / discontinuation ([5]; both parts, NCI CTCAE v4.03): no subject reported a TEAE higher than Grade 2 or an SAE, and no subject discontinued due to a TEAE
QTcF ([5]; during the study): No subject had a QTcF value > 450 ms or an increase from baseline in QTcF of > 60 ms
tolerability ([5]; single doses of 320 mg and 20 mg zanubrutinib alone or with 600 mg rifampin / 200 mg itraconazole, healthy subjects): well tolerated
mean half-life ([6]; patients with B-cell malignancies, PK generally assessed only for 8 h post-dose): 2 to 4 h
tolerability ([6]; patients with B-cell malignancies, total daily doses 40 to 320 mg): generally well tolerated
accumulation after repeated dosing [6, 24]: minimal accumulation
time of Cmax after oral dosing [6, 24]: approximately 2 h
dose dependence of exposure ([6]; total daily doses of 40–320 mg): increased in a dose-proportional manner
